Measurements as given in the NIST ThermoML archive (doi:10.1021/acs.jced.7b01035).
Numbers after ± are expanded uncertainties.

Assay: wn = mass fraction of the nth substance listed
Conditions: 500 kPa, Liquid, Concentric cylinders viscometry

NCCCO [3-amino-1-propanol] + O
viscosity [mPa·s]
Conditions	w1 = 0.1	w1 = 0.2	w1 = 0.3	w1 = 0.4	w1 = 0.5	w1 = 0.6	w1 = 0.7	w1 = 0.8	w1 = 0.9	w1 = 1
298.15 K	1.27 ± 0.32	1.84 ± 0.34	2.95 ± 0.42	4.76 ± 0.55	7.58 ± 0.8	12.17 ± 1.1	18.56 ± 1.4	26.23 ± 1.1	29.26 ± 0.53	30.43 ± 0.33
303.15 K	1.14 ± 0.32	1.62 ± 0.33	2.5 ± 0.38	3.97 ± 0.48	6.18 ± 0.64	9.64 ± 0.89	14.5 ± 1.2	20.98 ± 0.88	22.76 ± 0.43	23.87 ± 0.32
308.15 K	1.01 ± 0.31	1.41 ± 0.32	2.15 ± 0.36	3.34 ± 0.42	5.1 ± 0.53	7.69 ± 0.71	11.48 ± 0.86	15.73 ± 0.72	17.96 ± 0.46	19.07 ± 0.31
313.15 K	0.89 ± 0.31	1.25 ± 0.31	1.82 ± 0.34	2.82 ± 0.39	4.23 ± 0.46	6.25 ± 0.58	9.21 ± 0.7	12.52 ± 0.6	14.36 ± 0.41	15.27 ± 0.31
318.15 K	0.81 ± 0.31	1.12 ± 0.31	1.59 ± 0.33	2.42 ± 0.36	3.59 ± 0.41	5.17 ± 0.49	7.5 ± 0.58	10.09 ± 0.51	11.6 ± 0.38	12.36 ± 0.31
323.15 K	0.75 ± 0.3	1.01 ± 0.31	1.4 ± 0.32	2.11 ± 0.34	3.07 ± 0.37	4.34 ± 0.43	6.17 ± 0.49	8.24 ± 0.45	9.47 ± 0.36	10.22 ± 0.3
328.15 K	0.72 ± 0.3	0.92 ± 0.3	1.24 ± 0.31	1.86 ± 0.33	2.65 ± 0.35	3.69 ± 0.39	5.14 ± 0.43	6.81 ± 0.4	7.78 ± 0.35	8.54 ± 0.3
333.15 K	0.66 ± 0.3	0.84 ± 0.3	1.1 ± 0.31	1.66 ± 0.32	2.31 ± 0.34	3.17 ± 0.36	4.33 ± 0.39	5.68 ± 0.37	6.47 ± 0.33	7.12 ± 0.3
338.15 K	0.61 ± 0.3	0.76 ± 0.3	0.99 ± 0.31	1.47 ± 0.32	2.03 ± 0.33	2.74 ± 0.34	3.67 ± 0.36	4.79 ± 0.35	5.43 ± 0.33	6.05 ± 0.3
343.15 K	0.58	0.73 ± 0.3	0.9 ± 0.31	1.32 ± 0.31	1.81 ± 0.32	2.39 ± 0.33	3.15 ± 0.34	4.08 ± 0.33	4.61 ± 0.31	4.84 ± 0.3
348.15 K	0.57	0.7 ± 0.3	0.82 ± 0.3	1.2 ± 0.31	1.64 ± 0.31	2.09 ± 0.32	2.72 ± 0.33	3.51 ± 0.32	3.93 ± 0.31	4.17 ± 0.3
353.15 K	0.55	0.67 ± 0.3	0.75 ± 0.3	1.08 ± 0.31	1.46 ± 0.31	1.85 ± 0.31	2.37 ± 0.32	3.03 ± 0.32	3.39 ± 0.31	3.63 ± 0.3
358.15 K	0.41	0.54	0.69 ± 0.3	0.99 ± 0.31	1.32 ± 0.31	1.68 ± 0.31	2.09 ± 0.32	2.7 ± 0.31	2.93 ± 0.3	3.19 ± 0.3
363.15 K	0.39	0.49	0.65 ± 0.3	0.93 ± 0.31	1.25 ± 0.31	1.51 ± 0.31	1.86 ± 0.31	2.4 ± 0.31	2.56 ± 0.3	2.73 ± 0.3
368.15 K	0.37	0.47	0.63 ± 0.3	0.88 ± 0.3	1.16 ± 0.3	1.37 ± 0.3	1.66 ± 0.31	2.13 ± 0.31	2.24 ± 0.3	2.52 ± 0.3
373.15 K	0.35	0.44	0.59	0.82 ± 0.3	1.05 ± 0.3	1.26 ± 0.3	1.49 ± 0.31	1.91 ± 0.3	1.98 ± 0.3	2.25 ± 0.3
